Test results reported in PMC10257182, “Discovery of senolytics using machine learning” (Nature Communications, 2023).
Like-named read-outs stand apart in the source and are kept apart here.

Experiments:
Assay type in all cases: cell-based, human
[1] = system: non-senescent control IMR90 ER:RAS cells; experiment: Nuclei count (Hoechst, high content imaging) senolytic assay, OIS model, non-senescent control cells; details: Homo sapiens; for viability at 1 µM: log (dose) [M] -6, 72 h; for viability at 0.2188 µM: log (dose) [M] -6.66, 72 h; for viability at 0.02188 µM: log (dose) [M] -7.66, 72 h; for viability at 0.219 µM: log (dose) [M] -6.66; for viability at 0.0219 µM: log (dose) [M] -7.66
Method in brief: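 Compared non-senescent and senescent IMR90 ER:RAS cultures (senescence induced with 4-OHT at 100 nM final); cells seeded 24 h before dosing, then exposed 72 h to compounds, 10-point […] range 10 μM–10 nM, triplicate. Fixed, Hoechst-stained, nuclei counted by high-content imaging; drop versus untreated reflects cell death.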

[2] = system: non-senescent control A549 cells; experiment: Nuclei count senolytic assay, TIS model, non-senescent control cells; details: Homo sapiens, A549, Control cells, mean, read-out: Mean % Cell Survival; for viability at 10 µM: log (dose) [M] -5; for viability at 4.68 µM: log (dose) [M] -5.33; for viability at 2.19 µM: log (dose) [M] -5.66; for viability at 1 µM: log (dose) [M] -6; for viability at 0.468 µM: log (dose) [M] -6.33; for viability at 0.219 µM: log (dose) [M] -6.66; for viability at 0.1 µM: log (dose) [M] -7; for viability at 0.0468 µM: log (dose) [M] -7.33; for viability at 0.0219 µM: log (dose) [M] -7.66; for viability at 0.01 µM: log (dose) [M] -8
Method in brief: (§1)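 A549 cells made senescent with 100 μM etoposide for 48 h then 3 days in normal media; non-senescent A549 as control. Cells were exposed for 72 h to a 10-point […] range (10 μM–10 nM) in triplicate, then fixed, Hoechst-stained and imaged for nuclei count.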

[3] = system: senescent A549 cells (etoposide-induced); experiment: Nuclei count senolytic assay, therapy-induced senescence (TIS) model, senescent cells; details: Homo sapiens, A549, Senescent cells, mean, read-out: Mean % Cell Survival; for viability at 10 µM: log (dose) [M] -5; for viability at 4.68 µM: log (dose) [M] -5.33; for viability at 2.19 µM: log (dose) [M] -5.66; for viability at 1 µM: log (dose) [M] -6; for viability at 0.468 µM: log (dose) [M] -6.33; for viability at 0.219 µM: log (dose) [M] -6.66; for viability at 0.1 µM: log (dose) [M] -7; for viability at 0.0468 µM: log (dose) [M] -7.33; for viability at 0.0219 µM: log (dose) [M] -7.66; for viability at 0.01 µM: log (dose) [M] -8
Method in brief: as §1

[4] = IMR-90, 72 h, Control, log (dose) [M] -5, 72 h, mean n=3 (Fig 3C), read-out: Mean % Cell Survival
[5] = IMR-90, 72 h, Control, log (dose) [M] -5.33, 72 h, mean n=3 (Fig 3C), read-out: Mean % Cell Survival
[6] = IMR-90, 72 h, Control, log (dose) [M] -5.66, 72 h, mean n=3 (Fig 3C), read-out: Mean % Cell Survival
[7] = IMR-90, 72 h, Control, mean n=3 (Fig 3C), read-out: Mean % Cell Survival
[8] = IMR-90, 72 h, Control, log (dose) [M] -6.33, 72 h, mean n=3 (Fig 3C), read-out: Mean % Cell Survival
[9] = IMR-90, 72 h, Control, log (dose) [M] -7, 72 h, mean n=3 (Fig 3C), read-out: Mean % Cell Survival
[10] = IMR-90, 72 h, Control, log (dose) [M] -7.33, 72 h, mean n=3 (Fig 3C), read-out: Mean % Cell Survival
[11] = IMR-90, 72 h, Control, log (dose) [M] -8, 72 h, mean n=3 (Fig 3C), read-out: Mean % Cell Survival
[12] = IMR-90, Control, log (dose) [M] -5, read-out: % Cell Survival
[13] = IMR-90, Control, log (dose) [M] -5.66, read-out: % Cell Survival
[14] = IMR-90, Control, log (dose) [M] -6.33, read-out: % Cell Survival
[15] = IMR-90, Control, read-out: % Cell Survival
[16] = IMR-90, Control, log (dose) [M] -7, read-out: % Cell Survival
[17] = IMR-90, Control, log (dose) [M] -8, read-out: % Cell Survival

For O=c1c(O)c(-c2ccc(O)cc2O)oc2cc(O)cc(O)c12 [Morin, morin], the viability at 10 µM [1, 4] was 95.2%, the viability at 4.677 µM [1, 5] was 93.9% and the viability at 2.188 µM [1, 6] was 96.1%. For the same compound, the viability at 1 µM [1, 7] was 81.3%, the viability at 0.4677 µM [1, 8] was 91.6% and the viability at 0.2188 µM [1, 7] was 86.4%. It also gave a viability at 0.1 µM [1, 9] of 91.3%, a viability at 0.04677 µM [1, 10] of 86.7% and a viability at 0.02188 µM [1, 7] of 91.5%. It also gave a viability at 0.01 µM [1, 11] of 99.5%, a viability at 10 µM ([1]; IMR-90, Control cells, log (dose) [M] -5, individual replicates, SUP FIG 4C, read-out: % Cell Survival) of 88.7% and a viability at 4.677 µM ([1]; IMR-90, Control cells, log (dose) [M] -5.33, individual replicates, SUP FIG 4C, read-out: % Cell Survival) of 93.4%. It also gave a viability at 2.188 µM ([1]; IMR-90, Control cells, log (dose) [M] -5.66, individual replicates, SUP FIG 4C, read-out: % Cell Survival) of 102%, a viability at 0.4677 µM ([1]; IMR-90, Control cells, log (dose) [M] -6.33, individual replicates, SUP FIG 4C, read-out: % Cell Survival) of 88.8% and a viability at 0.1 µM ([1]; IMR-90, Control cells, log (dose) [M] -7, individual replicates, SUP FIG 4C, read-out: % Cell Survival) of 98.5%. The viability at 0.01 µM ([1]; IMR-90, Control cells, log (dose) [M] -8, individual replicates, SUP FIG 4C, read-out: % Cell Survival) was 103%, the viability at 10 µM [1, 12] was 102% and the viability at 2.19 µM [1, 13] was 93.3%. It also gave a viability at 0.468 µM [1, 14] of 110%, a viability at 0.219 µM [1, 15] of 106% and a viability at 0.1 µM [1, 16] of 91.9%. For the same compound, the viability at 0.0219 µM [1, 15] was 98.9%, the viability at 0.01 µM [1, 17] was 97.2% and the viability at 10 µM [2] was 33.9%. It also gave a viability at 4.68 µM [2] of 98.9%, a viability at 2.19 µM [2] of 63.6% and a viability at 1 µM [2] of 115%. It also gave a viability at 0.468 µM [2] of 104%, a viability at 0.219 µM [2] of 99.4% and a viability at 0.1 µM [2] of 94.4%. For the same compound, the viability at 0.0468 µM [2] was 111%, the viability at 0.0219 µM [2] was 67.6% and the viability at 0.01 µM [2] was 67.4%. For the same compound, the viability at 10 µM [3] was 87.9%, the viability at 4.68 µM [3] was 93.5% and the viability at 2.19 µM [3] was 59.5%. The viability at 1 µM [3] was 67.1%, the viability at 0.468 µM [3] was 88.2% and the viability at 0.219 µM [3] was 69.3%. It also gave a viability at 0.1 µM [3] of 84.2%, a viability at 0.0468 µM [3] of 54.5% and a viability at 0.0219 µM [3] of 87.7%. For the same compound, the viability at 0.01 µM [3] was 95.1%.

Compound CO[C@H]1C[C@@H]2CC[C@@H](C)[C@@](O)(O2)C(=O)C(=O)N2CCCC[C@H]2C(=O)O[C@H]([C@H](C)C[C@@H]2CC[C@@H](OP(C)(C)=O)[C@H](OC)C2)CC(=O)[C@H](C)/C=C(\C)[C@@H](O)[C@@H](OC)C(=O)[C@H](C)C[C@H](C)/C=C/C=C/C=C/1C [Ridaforolimus, ridaforolimus, reference compound] has a viability at 10 µM [1, 4] of 75.2%, a viability at 4.677 µM [1, 5] of 82.6% and a viability at 2.188 µM [1, 6] of 82.3%. It also gave a viability at 1 µM [1, 7] of 77.9%, a viability at 0.4677 µM [1, 8] of 87.6% and a viability at 0.2188 µM [1, 7] of 91.5%. For the same compound, the viability at 0.1 µM [1, 9] was 77.4%, the viability at 0.04677 µM [1, 10] was 106% and the viability at 0.02188 µM [1, 7] was 88.9%. The viability at 0.01 µM [1, 11] was 92.5%, the viability at 10 µM [1, 12] was 119% and the viability at 2.19 µM [1, 13] was 107%. It also gave a viability at 0.468 µM [1, 14] of 105%, a viability at 0.219 µM [1, 15] of 109% and a viability at 0.1 µM [1, 16] of 97%. It also gave a viability at 0.04677 µM ([1]; IMR-90, Control, log (dose) [M] -7.33, read-out: % Cell Survival) of 115%, a viability at 0.0219 µM [1, 15] of 113% and a viability at 0.01 µM [1, 17] of 113%. The viability at 10 µM [2] was 110%, the viability at 4.68 µM [2] was 121% and the viability at 2.19 µM [2] was 69%. The viability at 1 µM [2] was 65.1%, the viability at 0.468 µM [2] was 96% and the viability at 0.219 µM [2] was 102%. It also gave a viability at 0.1 µM [2] of 97.4%, a viability at 0.0468 µM [2] of 108% and a viability at 0.0219 µM [2] of 74.4%. It also gave a viability at 0.01 µM [2] of 107%, a viability at 10 µM [3] of 162% and a viability at 4.68 µM [3] of 174%. The viability at 2.19 µM [3] was 157%, the viability at 1 µM [3] was 66.9% and the viability at 0.468 µM [3] was 113%. It also gave a viability at 0.219 µM [3] of 102%, a viability at 0.1 µM [3] of 60.6% and a viability at 0.0468 µM [3] of 60.9%. It also gave a viability at 0.0219 µM [3] of 84.7% and a viability at 0.01 µM [3] of 87.1%.
